# PubChem BioAssay AID280 (DTP/NCI, 2004)
# “And” between values parts separate entries of the source, which are not always exact repeats. Equal values may be shown once. Inconclusive results and toxic doses are left out.
# Test system: nude mice, LOX melanoma ip, survival T/C
# Assay: NCI In Vivo Anticancer Drug Screen. Data for tumor model Human Amelanotic Melanoma (LOX) (intraperitoneal) in NU/NU BALB/C (nude) mice
# Details: endpoint: median survival time, higher = longer survival
# Method: The antitumor activity of compounds was measured in mice bearing transplantable tumors. Survival or tumor size were measured and the results are expressed as the measurement made in the treated group (T) divided by the measurement made in the vehicle treated control group (C). The tumor model used in this assay is Human Amelanotic Melanoma (LOX) (intraperitoneal) in NU/NU BALB/C (nude) mice
# [1] = dose: 50.0 mg/kg/injection, schedule: Q04DX003 (ip), vehicle: Klucel (hydroxypropylcellulose) (HPC)
# [2] = dose: 100.0 mg/kg/injection, schedule: Q04DX003 (ip), vehicle: Klucel (hydroxypropylcellulose) (HPC)
# [3] = dose: 200.0 mg/kg/injection, schedule: Q04DX003 (ip), vehicle: Klucel (hydroxypropylcellulose) (HPC)
# [4] = dose: 400.0 mg/kg/injection, schedule: Q04DX003 (ip), vehicle: Klucel (hydroxypropylcellulose) (HPC)
# [5] = dose: 12.5 mg/kg/injection, schedule: Q04DX003 (ip), vehicle: suspension in saline
# [6] = dose: 30.0 mg/kg/injection, schedule: Q04DX003 (ip), vehicle: saline
# [7] = dose: 60.0 mg/kg/injection, schedule: Q04DX003 (ip), vehicle: saline
# [8] = dose: 120.0 mg/kg/injection, schedule: Q04DX003 (ip), vehicle: saline
# [9] = dose: 240.0 mg/kg/injection, schedule: Q04DX003 (ip), vehicle: saline
# [10] = dose: 50.0 mg/kg/injection, schedule: Q04DX003 (ip), vehicle: saline with Tween-80
# [11] = dose: 400.0 mg/kg/injection, schedule: Q04DX003 (ip), vehicle: saline with Tween-80
# [12] = dose: 10.0 mg/kg/injection, schedule: Q04DX003 (ip), vehicle: saline
# [13] = dose: 20.0 mg/kg/injection, schedule: Q04DX003 (ip), vehicle: saline
structure (smiles),measurement,setting,value
CN(C)c1ccc2c(Nc3ccc(NS(C)(=O)=O)cc3)c3ccc(N(C)C)cc3nc2c1,T/C,"dose: 25.0 mg/kg/injection, schedule: Q04DX003 (ip), vehicle: Klucel (hydroxypropylcellulose) (HPC)",101 % of control
same,T/C,[1],98 % of control
same,T/C,[2],113 % of control
same,T/C,[3],163 % of control
same,T/C,[4],109 % of control
Oc1ccc(/C=N/Nc2nnc(N/N=C/c3ccc(O)cc3O)c3ccccc23)c(O)c1,T/C,[5],120 % of control
same,T/C,"dose: 25.0 mg/kg/injection, schedule: Q04DX003 (ip), vehicle: suspension in saline",119 % of control
CCCn1c(SC)nc(COC(=O)NC)c1COC(=O)NC,T/C,[6],104 % of control
same,T/C,[7],123 % of control
same,T/C,"dose: 106.8 mg/kg/injection, schedule: Q04DX003 (ip), vehicle: water",98 % of control
same,T/C,[8],119 % of control
same,T/C,"dose: 160.1 mg/kg/injection, schedule: Q04DX003 (ip), vehicle: water",103 % of control
same,T/C,[9],191 % of control
same,T/C,"dose: 240.0 mg/kg/injection, schedule: Q04DX003 (ip), vehicle: water",122 % of control
same,T/C,"dose: 359.8 mg/kg/injection, schedule: Q04DX003 (ip), vehicle: water",189 % of control
same,T/C,"dose: 480.0 mg/kg/injection, schedule: Q04DX003 (ip), vehicle: saline",170 % of control
CCCCCCCCCCCCCCCCCCOCC(CO)OC (centres undefined),T/C,"dose: 150.0 mg/kg/injection, schedule: Q04DX003 (ip), vehicle: saline with Tween-80",150 % of control and 151 % of control
same,T/C,"dose: 300.0 mg/kg/injection, schedule: Q04DX003 (ip), vehicle: saline with Tween-80",160 % of control
NC(=S)c1ncn(C2OC(COC=O)C(OC=O)C2OC=O)c1NC=O (centres undefined),T/C,[10],109 % of control
same,T/C,"dose: 200.0 mg/kg/injection, schedule: Q04DX003 (ip), vehicle: saline with Tween-80",172 % of control
same,T/C,[11],188 % of control
CCOC(=O)c1c[nH]c2ccc3c(nc(C)n3C)c2c1=O,T/C,[1],100 % of control
same,T/C,[2],104 % of control
same,T/C,[3],93 % of control
same,T/C,[4],100 % of control
same,T/C,"dose: 800.0 mg/kg/injection, schedule: Q04DX003 (ip), vehicle: Klucel (hydroxypropylcellulose) (HPC)",94 % of control
N=C1CCCS1,T/C,[12],114 % of control
same,T/C,[13],96 % of control
same,T/C,"dose: 40.0 mg/kg/injection, schedule: Q04DX003 (ip), vehicle: saline",102 % of control
same,T/C,"dose: 80.0 mg/kg/injection, schedule: Q04DX003 (ip), vehicle: saline",113 % of control
same,T/C,"dose: 160.0 mg/kg/injection, schedule: Q04DX003 (ip), vehicle: saline",116 % of control
O=CC(CO)CC(C=O)n1cnc2c(=O)[nH]cnc21 (centres undefined),T/C,"dose: 50.0 mg/kg/injection, schedule: Q04DX003 (ip), vehicle: saline",109 % of control
same,T/C,"dose: 100.0 mg/kg/injection, schedule: Q04DX003 (ip), vehicle: saline",102 % of control
same,T/C,"dose: 200.0 mg/kg/injection, schedule: Q04DX003 (ip), vehicle: saline",103 % of control
same,T/C,"dose: 400.0 mg/kg/injection, schedule: Q04DX003 (ip), vehicle: saline",113 % of control
same,T/C,"dose: 800.0 mg/kg/injection, schedule: Q04DX003 (ip), vehicle: saline",100 % of control
N=C(N)c1ccc(N=Nc2c(O)ccc3cc(O)ccc23)cc1,T/C,"dose: 18.75 mg/kg/injection, schedule: Q04DX003 (ip), vehicle: Klucel (hydroxypropylcellulose) (HPC)",92 % of control
same,T/C,"dose: 37.5 mg/kg/injection, schedule: Q04DX003 (ip), vehicle: Klucel (hydroxypropylcellulose) (HPC)",102 % of control
same,T/C,"dose: 300.0 mg/kg/injection, schedule: Q04DX003 (ip), vehicle: Klucel (hydroxypropylcellulose) (HPC)",95 % of control
CC(=O)c1cccc(NC2C(N)C(NC(=O)N(C)C)(C(C)O)C(C)(O)C2(O)COC(=O)c2c(C)cccc2O)c1 (centres undefined),T/C,[5],173 % of control
COC(=O)C1C2CCCN2OC1(C)CO (centres undefined),T/C,[6],103 % of control
same,T/C,[7],97 % of control
same,T/C,"dose: 62.5 mg/kg/injection, schedule: Q04DX003 (ip), vehicle: saline with Tween-80",111 % of control
same,T/C,[8],99 % of control
same,T/C,[9],89 % of control
same,T/C,"dose: 250.0 mg/kg/injection, schedule: Q04DX003 (ip), vehicle: saline with Tween-80",101 % of control
same,T/C,"dose: 500.0 mg/kg/injection, schedule: Q04DX003 (ip), vehicle: saline with Tween-80",100 % of control
same,T/C,"dose: 1000.0 mg/kg/injection, schedule: Q04DX003 (ip), vehicle: saline with Tween-80",98 % of control
O=c1[nH]cc(F)c(=O)[nH]1,T/C,"dose: 5.0 mg/kg/injection, schedule: Q01DX005 (ip), vehicle: saline",123 % of control
same,T/C,"dose: 5.0 mg/kg/injection, schedule: Q01DX015 (ip), vehicle: saline",115 % of control
same,T/C,"dose: 10.0 mg/kg/injection, schedule: Q01DX015 (ip), vehicle: saline",224 % of control
same,T/C,[12],163 % of control
same,T/C,"dose: 15.0 mg/kg/injection, schedule: Q04DX003 (ip), vehicle: saline",108 % of control
same,T/C,"dose: 20.0 mg/kg/injection, schedule: Q01DX005 (ip), vehicle: saline",166 % of control
same,T/C,"dose: 20.0 mg/kg/injection, schedule: Q01DX015 (ip), vehicle: saline",211 % of control
same,T/C,[13],191 % of control
same,T/C,[6],179 % of control
same,T/C,"dose: 40.0 mg/kg/injection, schedule: Q01DX005 (ip), vehicle: saline",160 % of control
same,T/C,[7],185 % of control
COC1=CCC23C(=O)C=CC(=O)C2(C1)C(=O)c1ccccc1C3=O (centres undefined),T/C,"dose: 6.25 mg/kg/injection, schedule: Q04DX003 (ip), vehicle: saline with Tween-80",101 % of control
same,T/C,"dose: 12.5 mg/kg/injection, schedule: Q04DX003 (ip), vehicle: saline with Tween-80",100 % of control
same,T/C,"dose: 25.0 mg/kg/injection, schedule: Q04DX003 (ip), vehicle: saline with Tween-80",94 % of control
CCCSc1nc(COC(=O)NC)c(COC(=O)NC)n1C,T/C,[6],113 % of control
same,T/C,[7],110 % of control
same,T/C,[8],90 % of control
same,T/C,[9],98 % of control
O=C(O)Cc1cccc2c(=O)cc(-c3ccccc3)oc12,T/C,"dose: 25.0 mg/kg/injection, schedule: Q04DX003 (ip), vehicle: sodium bicarbonate",108 % of control
same,T/C,"dose: 50.0 mg/kg/injection, schedule: Q04DX003 (ip), vehicle: sodium bicarbonate",119 % of control
Cc1ccc(C(=O)NC2C(=O)NC(C(C)C)C(=O)N3CCCC3C(=O)N(C)CC(=O)N(C)C(C(C)C)C(=O)OC2C)c2c1Oc1c(c(C(=O)NC3C(=O)NC(C(C)C)C(=O)N4CCCC4C(=O)N(C)CC(=O)N(C)C(C(C)C)C(=O)OC3C)c3nc(-c4ccccc4)c(=O)oc3c1C)N2 (centres undefined),T/C,"dose: 0.25 mg/kg/injection, schedule: Q04DX003 (ip), vehicle: saline with Tween-80",159 % of control
same,T/C,"dose: 0.5 mg/kg/injection, schedule: Q04DX003 (ip), vehicle: saline with Tween-80",161 % of control
same,T/C,"dose: 1.0 mg/kg/injection, schedule: Q04DX003 (ip), vehicle: saline with Tween-80",224 % of control
same,T/C,"dose: 2.0 mg/kg/injection, schedule: Q04DX003 (ip), vehicle: saline with Tween-80",295 % of control
same,T/C,"dose: 4.0 mg/kg/injection, schedule: Q04DX003 (ip), vehicle: saline with Tween-80",301 % of control
O=C(CCCN1CCC(C(O)c2ccc(F)cc2)CC1)c1ccc(F)cc1 (centres undefined),T/C,"dose: 6.25 mg/kg/injection, schedule: Q01DX009 (ip), vehicle: saline with Tween-80",95 % of control
same,T/C,"dose: 12.5 mg/kg/injection, schedule: Q01DX009 (ip), vehicle: saline with Tween-80",107 % of control
same,T/C,"dose: 12.5 mg/kg/injection, schedule: Q01DX009 (oral), vehicle: saline with Tween-80",109 % of control
same,T/C,"dose: 25.0 mg/kg/injection, schedule: Q01DX009 (ip), vehicle: saline with Tween-80",101 % of control
same,T/C,"dose: 25.0 mg/kg/injection, schedule: Q01DX009 (oral), vehicle: saline with Tween-80",99 % of control
same,T/C,"dose: 50.0 mg/kg/injection, schedule: Q01DX009 (ip), vehicle: saline with Tween-80",115 % of control
same,T/C,"dose: 50.0 mg/kg/injection, schedule: Q01DX009 (oral), vehicle: saline with Tween-80",107 % of control
same,T/C,"dose: 100.0 mg/kg/injection, schedule: Q01DX009 (oral), vehicle: saline with Tween-80",107 % of control
ClC1(Cl)Cc2ccccc21,T/C,[10],109 % of control
same,T/C,"dose: 100.0 mg/kg/injection, schedule: Q04DX003 (ip), vehicle: saline with Tween-80",120 % of control
same,T/C,[11],120 % of control
